Measurements as given in patent US20260091138A1, “VARIANTS OF COAGULATION FACTOR VIII AND USES THEREOF” (Seattle Children’s Hospital d/b/a Seattle Children’s …, priority 2022, published 2026).
Entries after “also recorded” stand apart in the source; their conditions may differ. No end group written: not given here. Man6GlcNAc2 = high-mannose N-glycan (six mannose on two GlcNAc); GlcNAc = N-acetyl-glucosamine (single GlcNAc)

How the values were obtained:
[1] = system: CD4+ T-cells in splenocytes isolated from FVIII-primed HA mice; experiment: FVIII-specific CD4+ T-cell proliferation assay; format: cell-based, mouse; details: for effect of peptide on CD4+ T-cell proliferation (in words): peptides 0.1 μM to 10 μM; for CD4+ T-cell proliferation: 96 hours, background subtracted
Method: (§1) CD4^+ T-cell Proliferation Assay. Mice with high titer anti-FVIII inhibitors were generated as described in the Supplemental Methods. Mouse splenocytes were isolated and stained with BD Horizon™ violet cell proliferation dye 450 (VPD450) (BD Biosciences). The labeled splenocytes were cultured and stimulated by adding FVIII as a positive proliferation control, Factor IX as a nonspecific antigen control, or peptides, either glycosylated or non-glycosylated, corresponding to site N2118. Mannan (0.1, 1, and 10 μM, respectively) was added in mannan inhibition experiments. After 96 hours, cells were stained with anti-mouse CD4 and Fixable Viability Stain (Fisher Scientific) and analyzed by flow cytometry (BDT LSR II analyzer (Fisher Scientific)). The enhancement of proliferation was calculated by subtracting the background levels in non-stimulated cells.
Generation of hemophilia A mice with high-titer inhibitors. Anti-FVIII inhibitor mice were generated by priming the mice with 3 units (U) of recombinant full-length FVIII in 200 uL PBS 3× a week for four weeks. Mice were then sacrificed on week 5 for spleen collection or boosted one-week prior to spleen collection. Blood was drawn via retro-orbital bleed on the day of sacrifice in the same manner as before in order to measure IgG titer via enzyme-linked immunosorbent assay (ELISA).

HA mice [2] = experiment: FVIII functional activity (aPTT) and FVIII:Ag after hydrodynamic injection of BDD-FVIII and glycosylation variant plasmids; format: in vivo, mouse; details: one-week post hydrodynamic plasmid injection, average ± SD
Method: (§2) Delivery of plasmids carrying BDD-FVIII and its glycosylation variants genes into HA mice. Male HA mice with a FVIII exon 16 knockout in an Sv129/BL6 mixed background between the ages of 8-14 weeks were used in all experiments. Mice were injected with liver-specific plasmids carrying BDD-FVIII and its glycosylation variants genes (FIG. 2) via hydrodynamic injection at a concentration of 25 μg/mL and a volume (ml) equal to 9% the body weight of the mouse (g). A second challenge (SC) of the same plasmids via hydrodynamic injection was performed on Day 86 to elicit robust secondary immune responses. Blood was collected by retro-orbital bleed in one-tenth volume of 3.8% sodium citrate periodically following plasmid injections.
FVIII antigen (FVIII:Ag) ELISA. FVIII:Ag levels in mouse plasma post hydrodynamic injection with FVIII plasmids were determined by ELISA using murine anti-FVIII antibody (GMA-8020, Green Mountain Antibody, Burlington, VT) and biotin-labeled murine anti-FVIII antibody (GMA-8015, Green Mountain Antibody, Burlington, VT).

HA mice [3] = experiment: Total anti-FVIII IgG ELISA after plasmid-mediated gene transfer; format: in vivo, mouse
Method: as §2
Supplemental Methods. Measurement of total anti-FVIII IgG. 96 well flat bottom ELISA plates (Corning, Kennebunk, ME) were coated overnight at 4° C. with 0.44 U FVIII/well in coating buffer. Plates were then incubated with blocking buffer (1×Tris-Buffered Saline (TBS), 0.1% Tween-20, and 20% non-fat milk for 1 hour at 37° C. Plates were washed three times with wash buffer I 1×TBS and 0.1% Tween-20) between incubation steps. […] Concentrations of anti-FVIII IgG were evaluated by interpolation against the linear range on a standard curve created using mouse isotype control (Thermo Scientific) that was run in duplicate alongside samples on all plates.

HA mice [4] = experiment: Anti-FVIII inhibitor titers by Bethesda assay after plasmid-mediated gene transfer; format: in vivo, mouse
Method: as §2

[5] = system: CD4+ T-cells in splenocytes isolated from FVIII-primed HA mice; experiment: Mannan inhibition in FVIII-specific T cell proliferation assay; format: cell-based, mouse
Method: as §1

## D2108GKKWQTYRGN2118STGT2122 (DGKKWQTYRGN(Man6GlcNAc2)STGT; also: mannosylated; UniProt P00451 2127-2141, looked up, fragment) [2118MP3, mannosylated overlapping 15-mer Peptide 3]
[1]
  effect of peptide on CD4+ T-cell proliferation (in words): little to no proliferation

## K2111WQTYRGN2118STGTLMV2125 [2118MP1]
[1]; peptide 10 μM
  CD4+ T-cell proliferation: 4.2±1.3%
[1]; listed as MP1
  effect of peptide on CD4+ T-cell proliferation (in words): increased proliferation levels; also recorded: Enhanced proliferation

## T2114YRGN2118STGTLMVFFG2128 (TYRGNSTGTLMVFFG; non-glycosylated; UniProt P00451 2133-2147, looked up, fragment) [2118NGP2, non-glycosylated counterpart of 2118MP2]
[1]
  effect of peptide on CD4+ T-cell proliferation (in words): nearly no proliferation

## N2118Q: BDD-FVIII plasmid variant with N2118Q mutation in the C1 domain eliminating the 2118 glycosylation site (SEQ ID NO: 23)
HA mice [2]
  FVIII functional activity levels in treated mouse plasma (average activity): 223±77%
HA mice [3]; peak around day 56, after first plasmid transfer
  anti-FVIII IgG level compared to the other three groups: lower antibody levels; also recorded: lower IgG level
HA mice [3]; second plasmid challenge on day 84, hydrodynamic injection
  drastic increase in anti-FVIII levels after the second challenge: did not; also recorded: remained at a low level
HA mice [4]; after first plasmid challenge
  inhibitor responses to FVIII following first plasmid challenge compared to WT BDD-FVIII plasmid: trend of decreased inhibitor responses
HA mice [4]; after second plasmid challenge, compared with WT BDD-FVIII
  inhibitor titer / inhibitor responses post-second challenge: significantly lower inhibitor titer; also recorded: statistically significant lower inhibitor responses
HA mice [4]; day 56, after first plasmid transfer
  inhibitor titers (Bethesda assay) compared to other groups: lower inhibitor titers; also recorded: Low inhibitor titers

## FIX: Factor IX as a nonspecific antigen control [reference compound]
[1]; increasing doses of FVIII, FIX as nonspecific antigen control
  CD4+ T-cell proliferation response to protein antigen controls: no response

## T2114YRGN2118STGTLMVFFG2128 (TYRGN(Man6GlcNAc2)STGTLMVFFG; also: mannosylated; UniProt P00451 2133-2147, looked up, fragment) [2118MP2, mannosylated overlapping 15-mer Peptide 2]
[1]; peptide 1 μM
  CD4+ T-cell proliferation: 2.9±0.6%
[1]; peptide 10 μM
  CD4+ T-cell proliferation: 5.5±2.0%
[1]; listed as MP2
  effect of peptide on CD4+ T-cell proliferation (in words): Enhanced proliferation; also recorded: higher proliferation compared to MP1

## K2111WQTYRGN2118STGTLMV2125 (KWQTYRGNSTGTLMV; non-glycosylated; UniProt P00451 2130-2144, looked up, fragment) [2118NGP1, non-glycosylated 15-mer FVIII peptide centered around site N2118]
[1]
  effect of peptide on CD4+ T-cell proliferation (in words): negligible effects
[1]; listed as NGP1
  effect of peptide on CD4+ T-cell proliferation (in words): negligible effects; also recorded: nearly no proliferation

## mannan
[5]; in response to 0.1 U/ml FVIII
  inhibition of T cell proliferation by mannan: only partially inhibited
[5]; in response to 1 U/ml or 10 U/ml FVIII
  inhibition of T cell proliferation by mannan: no inhibition
[5]; in response to MP1 at 0.1 and 1 μM
  inhibition of T cell proliferation by mannan: inhibited
[5]; in response to all three concentrations of 2118MP1
  inhibition of T cell proliferation by mannan: inhibited

## K2111WQTYRGN2118STGTLMV2125 (KWQTYRGN(GlcNAc)STGTLMV; UniProt P00451 2130-2144, looked up, fragment) [2118GlcP1, Peptide 1 with a single GlcNAc residue at N2118]
[1]
  effect of peptide on CD4+ T-cell proliferation (in words): negligible effects
